The values that follow come from the OPERA property sets (Mansouri et al. 2018).

≈ marks a conversion by molar mass, not a printed value.

On to `FCCCl`, for which the solubility (25 °C) amounted to 296 mM (≈ 24400 µg/mL).

Consider `BrC(Br)C(Br)Br`, for which the solubility (25 °C) worked out at 1.91 mM (≈ 659 µg/mL). The same measure, in the same setting: with `FC(F)(F)C(Cl)Cl` the figure was 13.7 mM (≈ 2100 µg/mL); with `FC(F)(F)C(Cl)Br` (stereo not given), 19.8 mM (≈ 3900 µg/mL). The same measure, in the same setting: with `CCI` the figure was 25.1 mM (≈ 3910 µg/mL). Consider `CC(Cl)(Cl)Cl`, for which the solubility (25 °C) is 11.2 mM (≈ 1490 µg/mL). On to `ClC(Br)C(Cl)Br` (stereo not given), for which the solubility (20 °C) was 2.73 mM (≈ 700 µg/mL).

Consider `ClC(Br)CBr` (stereo not given), for which, for the setting “20 °C”, the solubility stood at 2.79 mM (≈ 620 µg/mL). In the case of `CC(F)(Cl)Cl`, under “25 °C”, the solubility amounted to 3.59 mM (≈ 420 µg/mL). In turn, `ClCCBr` showed a solubility (25 °C) of 48.1 mM (≈ 6900 µg/mL). Against the preceding compound, the solubility is about 13-fold higher. The same measure, in the same setting: in the case of `ClC(Cl)=C(Cl)Cl` it was 1.21 mM (≈ 200 µg/mL); in that of `ClC(Cl)C(Cl)(Cl)Cl`, 2.37 mM (≈ 480 µg/mL). On to `BrCC(Br)Br`, for which, where the note is “20 °C”, the solubility was determined as 1.87 mM (≈ 500 µg/mL). For the setting “25 °C”, `FC(F)(Br)C(F)(F)Br` returned a solubility of 0.0115 mM (≈ 3 µg/mL). In other words, the double-digit micromolar range. With `FC(F)(Cl)CCl`, the solubility (24 °C) turned out to be 6.3 mM (≈ 850 µg/mL). The compound `CCBr` registered a solubility (25 °C) of 82 mM (≈ 8940 µg/mL).

In turn, `ClCC(Cl)Cl` came in with a solubility (25 °C) of 33.1 mM (≈ 4420 µg/mL). `CCCl`: the solubility (25 °C) was found to be 88 mM (≈ 5680 µg/mL). The same measure, in the same setting: in the case of `C=C(Cl)Cl` it was 23.2 mM (≈ 2250 µg/mL); in that of `ClCC(Cl)(Cl)Cl`, 6.38 mM (≈ 1070 µg/mL).
